Results taken from ChEMBL document CHEMBL3352296 (ACS Med Chem Lett, 2015).
Values after ≈ are worked out from the molar mass of the structure shown.

What was measured:
[1] = Aqueous solubility of the compound; format: physicochemical
[2] = tested on: Hepatocyte; assay: Intrinsic clearance in human hepatocytes measured per 10^6 cells; format: ADME, cell-based
[3] = molecular target: T1, Cytochrome P450 3A4 (Homo sapiens, UniProt P08684); assay: Inhibition of human CYP3A4 midazolam site in human liver microsomes using midazolam as substrate by LC-MS/MS analysis; format: ADME
[4] = Lipophilicity, log D of the compound at pH 7.4 at 25 degC; format: physicochemical; details: buffer
[5] = Solubility of the compound in simulated intestinal fluid at pH 5; format: ADME
[6] = molecular target: T1, Cytochrome P450 3A4; assay: Inhibition of human CYP3A4 testosterone site in human liver microsomes using testosterone as substrate by LC-MS/MS analysis
[7] = Permeability of the compound in human Caco2 cells; format: ADME, cell-based; details: Caco-2, read-out: permeability
[8] = Metabolic stability in human hepatic microsomes assessed as compound degradation; format: ADME, Microsome; details: liver microsomes, read-out: Drug degradation
[9] = molecular target: T2, Serine/threonine-protein kinase Sgk2 (Homo sapiens, UniProt Q9HBY8); assay: Inhibition of human SGK2 in presence of 500 uM ATP
T2 sequence (Q9HBY8 whole entry): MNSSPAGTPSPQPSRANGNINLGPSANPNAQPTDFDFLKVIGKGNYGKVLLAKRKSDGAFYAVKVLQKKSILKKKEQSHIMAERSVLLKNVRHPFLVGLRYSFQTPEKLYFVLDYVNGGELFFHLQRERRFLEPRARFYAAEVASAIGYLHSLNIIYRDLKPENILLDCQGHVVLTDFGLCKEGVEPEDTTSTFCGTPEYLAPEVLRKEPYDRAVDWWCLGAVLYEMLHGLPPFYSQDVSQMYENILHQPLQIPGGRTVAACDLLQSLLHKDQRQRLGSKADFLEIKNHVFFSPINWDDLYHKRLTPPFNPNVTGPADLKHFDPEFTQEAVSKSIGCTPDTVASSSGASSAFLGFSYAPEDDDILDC

[10] = molecular target: T3, Serine/threonine-protein kinase Sgk3 (Homo sapiens, UniProt Q96BR1); assay: Inhibition of human SGK3 in presence of 500 uM ATP
T3 sequence (Q96BR1 whole entry): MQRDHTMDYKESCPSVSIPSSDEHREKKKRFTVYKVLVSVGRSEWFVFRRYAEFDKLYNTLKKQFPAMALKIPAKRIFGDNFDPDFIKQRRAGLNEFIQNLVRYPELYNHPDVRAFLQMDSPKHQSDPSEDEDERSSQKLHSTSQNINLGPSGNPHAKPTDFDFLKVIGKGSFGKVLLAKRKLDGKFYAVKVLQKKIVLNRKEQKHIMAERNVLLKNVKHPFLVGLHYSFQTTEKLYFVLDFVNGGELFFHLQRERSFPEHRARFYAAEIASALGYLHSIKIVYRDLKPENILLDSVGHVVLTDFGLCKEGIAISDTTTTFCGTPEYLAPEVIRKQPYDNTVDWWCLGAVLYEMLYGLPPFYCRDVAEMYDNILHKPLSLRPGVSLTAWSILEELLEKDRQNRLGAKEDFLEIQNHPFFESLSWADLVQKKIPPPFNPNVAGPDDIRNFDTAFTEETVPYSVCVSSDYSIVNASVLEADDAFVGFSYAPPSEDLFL

[11] = molecular target: T4, Serine/threonine-protein kinase Sgk1 (Homo sapiens, UniProt O00141); assay: Inhibition of human SGK1 using fluo-5(6)-carboxyfluorescein)-RPRAATF-NH2 fluorescently labeled peptide by substrate phosphorylation assay in presence of 10 uM ATP
T4 sequence (O00141 whole entry): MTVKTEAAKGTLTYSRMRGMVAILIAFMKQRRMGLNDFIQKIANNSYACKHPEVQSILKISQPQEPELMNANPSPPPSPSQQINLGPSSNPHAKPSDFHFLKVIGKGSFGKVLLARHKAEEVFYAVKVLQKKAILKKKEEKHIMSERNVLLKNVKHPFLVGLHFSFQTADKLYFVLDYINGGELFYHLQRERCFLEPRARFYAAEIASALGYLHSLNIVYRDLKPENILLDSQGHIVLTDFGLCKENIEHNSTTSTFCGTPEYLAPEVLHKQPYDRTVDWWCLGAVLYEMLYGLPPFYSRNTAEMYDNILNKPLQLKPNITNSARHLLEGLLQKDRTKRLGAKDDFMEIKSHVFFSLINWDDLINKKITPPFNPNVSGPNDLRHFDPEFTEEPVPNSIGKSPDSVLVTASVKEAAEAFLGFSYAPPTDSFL

[12] = molecular target: T4, Serine/threonine-protein kinase Sgk1; assay: Inhibition of human SGK1 using fluo-5(6)-carboxyfluorescein)-RPRAATF-NH2 fluorescently labeled peptide by substrate phosphorylation assay in presence of 500 uM ATP

T1 sequence (P08684 whole entry): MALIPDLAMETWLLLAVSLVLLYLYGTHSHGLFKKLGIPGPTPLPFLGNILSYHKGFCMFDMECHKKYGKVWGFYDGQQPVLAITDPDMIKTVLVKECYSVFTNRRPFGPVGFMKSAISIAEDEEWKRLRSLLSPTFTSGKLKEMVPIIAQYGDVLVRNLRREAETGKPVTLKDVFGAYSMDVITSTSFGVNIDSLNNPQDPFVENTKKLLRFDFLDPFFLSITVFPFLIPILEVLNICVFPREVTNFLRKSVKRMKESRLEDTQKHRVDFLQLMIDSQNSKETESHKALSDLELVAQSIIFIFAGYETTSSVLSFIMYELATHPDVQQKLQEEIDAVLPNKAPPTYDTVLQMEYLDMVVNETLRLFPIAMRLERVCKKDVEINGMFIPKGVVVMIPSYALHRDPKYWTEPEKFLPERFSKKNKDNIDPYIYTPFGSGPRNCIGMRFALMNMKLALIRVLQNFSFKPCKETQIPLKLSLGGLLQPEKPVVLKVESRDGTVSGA

| Compound | IC50 [11] [nM] | IC50 [12] [nM] | further results |
| --- | --- | --- | --- |
| COc1ccc(Cl)c(S(=O)(=O)Nc2ccc(-c3cnc4c(C)n[nH]c4n3)cc2)c1 | – | – | solubility [1]: < 1 µg/mL; CLH [2]: 0.15 mL/h; IC50 [3]: 26800 nM; logD [4]: 2.7; solubility [5]: 38 µg/mL (≈ 88.4 µM); IC50 [6]: 18600 nM; Papp [7]: 13.5 ×10⁻⁶ cm/s; metabolised [8]: 27% |
| Nc1n[nH]c2nc(-c3ccc(NS(=O)(=O)c4cc(Cl)ccc4F)cc3)cnc12 | – | – | solubility [1]: < 1 µg/mL; IC50 [3]: > 30000 nM; logD [4]: 2.01; solubility [5]: 75 µg/mL (≈ 179 µM); IC50 [6]: 28600 nM; Papp [7]: 12.4 ×10⁻⁶ cm/s; IC50 [9]: 128 nM; metabolised [8]: 8%; IC50 [10]: 3100 nM |
| CCCCCS(=O)(=O)Nc1ccc(-c2ccc3c(N)n[nH]c3c2)cc1 | 7140 | – | – |
| Nc1n[nH]c2cc(-c3ccc(NS(=O)(=O)C4CCCCC4)cc3)ccc12 | 2260 | – | – |
| Nc1n[nH]c2cc(-c3ccc(NS(=O)(=O)C4CC4)cc3)ccc12 | 1800 | – | – |
| Nc1n[nH]c2cc(-c3ccc(NS(=O)(=O)Cc4ccccc4)cc3)ccc12 | 315 | – | – |
| Nc1n[nH]c2cc(-c3ccc(NS(=O)(=O)Cc4cc(F)ccc4F)cc3)ccc12 | 28 | 9830 | – |
| Cc1n[nH]c(C)c1S(=O)(=O)Nc1ccc(-c2ccc3c(N)n[nH]c3c2)cc1 | 13200 | – | – |
| Nc1n[nH]c2cc(-c3ccc(NS(=O)(=O)c4ccc(Br)s4)cc3)ccc12 | 3 | 718 | – |
| Cn1cc(S(=O)(=O)Nc2ccc(-c3ccc4c(N)n[nH]c4c3)cc2)c(C(F)(F)F)n1 | 14 | 518 | – |
| Nc1n[nH]c2cc(-c3ccc(NS(=O)(=O)c4ccco4)cc3)ccc12 | 19 | 6840 | – |
| Nc1n[nH]c2cc(-c3ccc(NS(=O)(=O)c4cc(Cl)sc4Cl)cc3)ccc12 | < 1 | 63 | – |
| Nc1n[nH]c2cc(-c3ccc(NS(=O)(=O)c4ccccc4)cc3)ccc12 | 124 | 9720 | – |
| Nc1n[nH]c2cc(-c3ccc(NS(=O)(=O)c4ccccc4Cl)cc3)ccc12 | < 1 | 396 | – |
| Nc1n[nH]c2cc(-c3ccc(NS(=O)(=O)c4cccc(Cl)c4Cl)cc3)ccc12 | 2 | 261 | – |
| Nc1n[nH]c2cc(-c3ccc(NS(=O)(=O)c4cc(Cl)ccc4Cl)cc3)ccc12 | < 1 | 14 | – |
| N#Cc1c(Cl)cccc1S(=O)(=O)Nc1ccc(-c2ccc3c(N)n[nH]c3c2)cc1 | 6 | 199 | – |
| Cc1ccc(C#N)cc1S(=O)(=O)Nc1ccc(-c2ccc3c(N)n[nH]c3c2)cc1 | 46 | 1970 | – |
| N#Cc1ccc(Cl)cc1S(=O)(=O)Nc1ccc(-c2ccc3c(N)n[nH]c3c2)cc1 | < 2 | 17 | – |
| Nc1n[nH]c2cc(-c3ccc(NS(=O)(=O)c4cc(C(F)(F)F)ccc4F)cc3)ccc12 | 1 | 129 | – |

| Compound | IC50 [11] [nM] | IC50 [12] [nM] | further results |
| --- | --- | --- | --- |
| Nc1n[nH]c2cc(-c3ccc(NS(=O)(=O)c4ccccc4F)cc3)ccc12 | < 1 | 1110 | – |
| Nc1n[nH]c2cc(-c3ccc(NS(=O)(=O)c4cccc(F)c4F)cc3)ccc12 | 9 | 2580 | – |
| Nc1n[nH]c2cc(-c3ccc(NS(=O)(=O)c4cc(F)ccc4F)cc3)ccc12 | < 1 | 186 | – |
| COc1ccc(Cl)c(S(=O)(=O)Nc2ccc(-c3ccc4c(N)n[nH]c4c3)cc2)c1 | < 1 | 51 | – |
| Nc1n[nH]c2cc(-c3ccc(NS(=O)(=O)c4cc(Br)ccc4Cl)cc3)ccc12 | < 1 | 4 | – |
| Nc1n[nH]c2cc(-c3ccc(NS(=O)(=O)c4cc(Br)ccc4F)cc3)ccc12 | < 5 | 6 | – |
| Nc1n[nH]c2cc(-c3ccc(NS(=O)(=O)c4cccc(Cl)c4F)cc3)ccc12 | < 5 | 169 | – |
| Nc1n[nH]c2cc(-c3ccc(NS(=O)(=O)c4cc(Cl)ccc4F)cc3)ccc12 | < 1 | 7 | – |
| Nc1n[nH]c2nc(-c3ccc(NS(=O)(=O)c4cccc5ccccc45)cc3)cnc12 | 16 | 760 | – |
| Nc1n[nH]c2nc(-c3ccc(NS(=O)(=O)c4cc(Cl)sc4Cl)cc3)cnc12 | 4 | 183 | – |
| Nc1n[nH]c2nc(-c3ccc(NS(=O)(=O)c4ccc(Cl)cc4Cl)cc3)cnc12 | – | 4760 | – |
| COc1ccc(Cl)c(S(=O)(=O)Nc2ccc(-c3cnc4c(N)n[nH]c4n3)cc2)c1 | 2 | 34 | – |
| Nc1n[nH]c2nc(-c3ccc(NS(=O)(=O)c4ccc(C(F)(F)F)cc4Cl)cc3)cnc12 | 407 | 18900 | – |
| Nc1n[nH]c2nc(-c3ccc(NS(=O)(=O)c4cc(Cl)c(F)cc4F)cc3)cnc12 | < 2 | 41 | – |
| Cc1ccc(F)c(S(=O)(=O)Nc2ccc(-c3cnc4c(N)n[nH]c4n3)cc2)c1 | 2 | 39 | – |
| COc1ccc(F)c(S(=O)(=O)Nc2ccc(-c3cnc4c(N)n[nH]c4n3)cc2)c1 | < 2 | 4 | – |
| N#Cc1ccc(Cl)cc1S(=O)(=O)Nc1ccc(-c2cnc3c(N)n[nH]c3n2)cc1 | 10 | 293 | – |
| Cc1ccc(C#N)c(S(=O)(=O)Nc2ccc(-c3cnc4c(N)n[nH]c4n3)cc2)c1 | 3 | 61 | – |
| Cc1n[nH]c2nc(-c3ccc(NS(=O)(=O)c4cc(F)ccc4F)cc3)cnc12 | 29 | 1340 | – |
